The values that follow come from paper PMC9686568, “Novel Alligator Cathelicidin As-CATH8 Demonstrates Anti-Infective Activity against Clinically Relevant and Crocodylian Bacterial Pathogens” (Antibiotics, 2022).

Converted amounts (≈) assume the structure as drawn. Residues, ends and D or L forms follow the SMILES beside them.

The test system of one assay is S. aureus. The assay can be described thus: MIC, broth microdilution in MHB. Type of assay: cell-based. As to conditions: first concentration without visible growth, mode of at least three independent experiments. How it is done:
(§1) The following bacterial pathogens were used in this study: S. enterica subsp. enterica serovar Typhimurium ATCC 14028, E. coli O157:H7 [83], the clinical isolates S. aureus SAP0017 [84] and USA300 LAC [85], E. faecium #1-1 [85], A. baumannii Ab5075 [85] and E. cloacae 218R1 [85], as well as P. aeruginosa PAO1 [34], P. vulgaris HSC7200-T2 (Hancock Lab strain collection) and K. pneumoniae KPLN49 [85].
(§2) Overnight cultures were grown in LB at 37 °C with shaking at 250 rpm, except for E. faecium, which was grown in BHI medium.
(§3) The antimicrobial activity of the crocCATHs was evaluated with the broth microdilution method as described previously. MIC was defined as the first peptide or antibiotic concentration without visible bacterial growth. Reported values are the statistical mode of at least three independent experiments.
Background: Broth dilution looks for growth in wells or tubes with falling amounts of substance.

The next assay deals with P. aeruginosa. The assay can be described thus: MIC, broth microdilution in MHB. Type of assay: cell-based, P. aeruginosa PAO1. The note with it: first concentration without visible growth, mode of at least three independent experiments. As for the experimental part:
as §1, §2, §3

The test system of the next assay is E. coli. It counts as cell-based, E. coli O157:H7. The note with it: microdilution in MHB, first concentration without visible growth, mode of at least three independent experiments. As for the experimental part:
as §1, §2, §3

A further assay deals with E. cloacae. It counts as cell-based, E. cloacae 218R1. As for the experimental part:
as §1, §2, §3

The subject of the next assay is P. vulgaris. Type of assay: cell-based, P. vulgaris HSC7200-T2. As to conditions: microdilution in MHB, first concentration without visible growth, mode of at least three independent experiments. How it is done:
as §1, §2, §3

For another assay, the system named is A. baumannii. The assay can be described thus: MIC, broth microdilution in MHB. It counts as cell-based, A. baumannii Ab5075. The note with it: first concentration without visible growth, mode of at least three independent experiments. How it is done: as §1, §2, §3
Another assay relates to P. aeruginosa biofilm. Type of assay: cell-based, P. aeruginosa PAO1. As for the experimental part:
(§4) Bacterial biofilm inhibition assays were performed using a microtiter assay as described by Haney et al.. For E. cloacae, E. coli, P. aeruginosa and S. Typhimurium, assays were performed using BM2 minimal medium (62 mM potassium phosphate, 7 mM ammonium sulfate, 0.5 mM magnesium sulfate, pH 7.0) supplemented with 0.4% glucose (w/v). Antibiofilm activity against A. baumannii and S. aureus SAP0017 was evaluated in 10% TSB (v/v) media supplemented with 0.1% glucose (w/v), whereas 10% THB (v/v) medium was employed for P. vulgaris.
(§5) Data from at least three independent experiments were analyzed as the percentage of biofilm mass compared to the untreated control. After crystal violet staining, MBIC95 was then calculated for each peptide, defined as the minimal peptide concentration capable of inhibiting mean biofilm growth by at least 95% compared to the untreated control.

For a further assay, the system named is K. pneumoniae. The assay can be described thus: MIC, broth microdilution in MHB. It counts as cell-based, K. pneumoniae KPLN49. The note with it: first concentration without visible growth, mode of at least three independent experiments. How it is done: as §1, §2, §3
The test system of a further assay is E. faecium. The assay can be described thus: MIC, broth microdilution in MHB. It counts as cell-based, E. faecium #1-1. The note with it: first concentration without visible growth, mode of at least three independent experiments. How it is done: as §1, §2, §3
In the next assay the test system is S. Typhimurium. It counts as cell-based, S. enterica subsp. enterica serovar Typhimurium ATCC 14028. As for the experimental part: as §1, §2, §3
Another assay has as its system E. coli biofilm. It counts as cell-based, E. coli O157:H7. The note with it: BM2 minimal medium + 0.4% glucose, crystal violet, at least 95% inhibition of mean biofilm growth, at least three independent experiments. How it is done:
as §4, §5

`CC(C)C[C@H](NC(=O)[C@H](C)NC(=O)[C@@H](NC(=O)[C@H](CC(N)=O)NC(=O)[C@H](CCCNC(=N)N)NC(=O)CNC(=O)[C@@H](NC(=O)[C@H](CCCCN)NC(=O)[C@H](CCCNC(=N)N)NC(=O)[C@H](Cc1c[nH]c2ccccc12)NC(=O)[C@H](CC(N)=O)NC(=O)[C@@H](NC(=O)[C@H](CCCNC(=N)N)NC(=O)[C@@H](N)CCCCN)C(C)C)C(C)C)[C@@H](C)O)C(=O)NCC(=O)N[C@@H](C)C(=O)N[C@@H](CO)C(=O)N[C@@H](Cc1ccc(O)cc1)C(=O)N[C@H](C(=O)N[C@@H](CC(C)C)C(=O)N[C@@H](CO)C(=O)N[C@@H](Cc1ccccc1)C(=O)N[C@@H](CC(C)C)C(=O)NCC(=O)O)C(C)C` [As-CATH7] (H-KRVNWRKVGRNTALGASYVLSFLG-OH): the minimum inhibitory concentration (MIC) (commonly the lowest concentration found to suppress growth) against S. aureus is 4 µM (≈ 10.8 µg/mL); against P. aeruginosa it was 4 µM (≈ 10.8 µg/mL); against E. coli it was 2 µM (≈ 5.39 µg/mL); against E. cloacae it was 0.5 µM (≈ 1.35 µg/mL); with P. vulgaris, more than 64 µM; in the assay on A. baumannii it was 0.25 µM (≈ 0.673 µg/mL). Besides, the MIC in the assay on K. pneumoniae is 1 µM (≈ 2.69 µg/mL); with E. faecium, more than 64 µM; with S. Typhimurium, 2 µM (≈ 5.39 µg/mL). The MBIC95 in the assay with P. aeruginosa biofilm is more than 172 µg/mL; with E. coli biofilm, 32 µM.
As to `CC[C@H](C)[C@H](NC(=O)[C@H](C)NC(=O)CNC(=O)[C@H](CC(N)=O)NC(=O)[C@H](CC(C)C)NC(=O)[C@@H](NC(=O)[C@H](CCCCN)NC(=O)[C@H](CCCCN)NC(=O)[C@H](Cc1c[nH]c2ccccc12)NC(=O)[C@H](Cc1c[nH]c2ccccc12)NC(=O)[C@H](CCCCN)NC(=O)[C@H](CCCNC(=N)N)NC(=O)[C@H](CCCNC(=N)N)NC(=O)[C@@H](N)[C@@H](C)O)C(C)C)C(=O)N[C@@H](CCCCN)C(=O)N[C@H](C(=O)N[C@@H](C)C(=O)N1CCC[C@H]1C(=O)N[C@@H](Cc1ccc(O)cc1)C(=O)N[C@H](C(=O)N[C@@H](CC(C)C)C(=O)N[C@@H](CC(=O)O)C(=O)O)[C@@H](C)CC)[C@@H](C)CC` [Gg-CATH5] (H-TRRKWWKKVLNGAIKIAPYILD-OH), the minimal inhibitory concentration (MIC) in the assay on S. aureus is 1 µM (≈ 2.67 µg/mL); against P. aeruginosa, 1 µM (≈ 2.67 µg/mL); with E. coli, 4 µM (≈ 10.7 µg/mL); against P. vulgaris, 8 µM (≈ 21.4 µg/mL); in the assay on A. baumannii it was 0.5 µM (≈ 1.34 µg/mL); with K. pneumoniae it was 0.5 µM (≈ 1.34 µg/mL). Besides, in the assay on E. faecium, the minimum inhibitory concentration (MIC) is given as more than 64 µM. Moreover, the MBIC95 in the assay with E. coli biofilm was 32 µM.
As for `CC[C@H](C)[C@H](NC(=O)[C@H](Cc1ccc(O)cc1)NC(=O)[C@@H]1CCCN1C(=O)[C@H](CC(C)C)NC(=O)[C@H](CC(C)C)NC(=O)[C@H](CCCCN)NC(=O)[C@H](CC(C)C)NC(=O)[C@H](C)NC(=O)[C@@H](NC(=O)[C@H](CCCNC(=N)N)NC(=O)CNC(=O)[C@@H](NC(=O)[C@H](CCCCN)NC(=O)[C@H](C)NC(=O)[C@H](Cc1c[nH]c2ccccc12)NC(=O)[C@H](CC(N)=O)NC(=O)[C@@H](NC(=O)[C@H](CCCNC(=N)N)NC(=O)[C@@H](N)CCCCN)C(C)C)C(C)C)[C@@H](C)O)C(=O)N[C@@H](Cc1ccccc1)C(=O)NCC(=O)O` [As-CATH8] (H-KRVNWAKVGRTALKLLPYIFG-OH), the minimum inhibitory concentration (MIC) with S. aureus turned out to be 0.5 µM (≈ 1.22 µg/mL); in the assay on P. aeruginosa, 1 µM (≈ 2.43 µg/mL); with E. coli, 1 µM (≈ 2.43 µg/mL); against E. cloacae, 0.5 µM (≈ 1.22 µg/mL); with P. vulgaris, 4 µM (≈ 9.72 µg/mL); with A. baumannii, 0.25 µM (≈ 0.608 µg/mL). Moreover, the minimum inhibitory concentration (MIC) in the assay on K. pneumoniae was 0.5 µM (≈ 1.22 µg/mL); in the assay on E. faecium, more than 64 µM; with S. Typhimurium it was 1 µM (≈ 2.43 µg/mL). The MBIC95 with E. coli biofilm amounted to 1 µM.
As to `CSCC[C@H](NC(=O)[C@@H](NC(=O)[C@H](Cc1ccc(O)cc1)NC(=O)[C@H](CO)NC(=O)[C@H](C)NC(=O)CNC(=O)[C@H](CC(C)C)NC(=O)CNC(=O)[C@@H](NC(=O)[C@H](CCCCN)NC(=O)[C@H](CCCNC(=N)N)NC(=O)[C@H](Cc1c[nH]c2ccccc12)NC(=O)[C@H](CC(N)=O)NC(=O)[C@@H](NC(=O)[C@H](CCCNC(=N)N)NC(=O)[C@@H](N)CCCCN)C(C)C)C(C)C)C(C)C)C(=O)N[C@@H](CO)C(=O)N[C@@H](Cc1c[nH]c2ccccc12)C(=O)N[C@@H](CC(C)C)C(=O)NCC(=O)O` [Gg-CATH7] (H-KRVNWRKVGLGASYVMSWLG-OH), the figures for the minimum inhibitory concentration (MIC) with E. cloacae and in the assay on S. Typhimurium were 2 µM (≈ 4.62 µg/mL) and 4 µM (≈ 9.23 µg/mL), respectively. The same molecule showed an MBIC95 in the assay with P. aeruginosa biofilm of more than 148 µg/mL.
